Source: patent publication US7923448B2, “Purine receptor inhibition as a therapeutic strategy in spinal cord and brain” (priority 2003, dated 2011)
“Also recorded” adds a separate entry of the source. Values belong to the compound of their own block, whether it stands above or below them.

How the values were obtained:
[1] = system: non-injured spinal cord; test: Injection of ATP or ATP analogs into the non-injured spinal cord, TUNEL staining; type: in vivo, rat; conditions: 10 mM, 2 μl injected just lateral to the dorsal horn, 24 hrs later
Procedure: (§1) Adult female Spague-Dawley rats (220-250 g) were anesthetized with pentobarbital (50 mg/kg i.p.). When unresponsive, a double level laminectomy was performed at the T11 and T12 vertebrae. […] The tip of the rod was reduced to 1 mm to avoid direct traumatic injury of the dorsal venous complex. ATP and agonists (10 mM, 2 μl) were stereotaxically injected into T12 just lateral to the dorsal horn. All agents were purchased from Sigma.
The rats were anesthetized with ketamine (60 mg/kg) and xylazine (10 mg/kg). After 12 hours post-fixation, the spinal cord is cryoprotected in 30% sucrose and cut in serial 20 μm para-saggital sections. Myelin was visualized with Luxol fast blue (Basso et al., “A Sensitive and Reliable Locomotor Rating Scale for Open Field Testing in Rats,” J Neurotrauma 12:1-21 (1995) and Nedergaard et al., “Characterization of Cortical Depolarization Evoked in Focal Cerebral Ischemia,” J Cereb Blood Flow Metab 13:568-574 (1993), which are hereby incorporated by reference in their entirety)). Immunohistochemistry and TUNEL staining were performed as described in (Lin et al., “Gap-Junction-Mediated Propagation and Amplification of Cell Injury,” Nat Neurosci 1:494-500 (1998); Lin et al., “Connexin Mediates Gap Junction-Independent Resistance to Cellular Injury,” J Neurosci 23:430-441 (2003); and Takano et al., “Glutamate Release Promotes Growth of Malignant Glioma,” Nat Med 7:1010-1015 (2001), which are hereby incorporated by reference in their entirety)). Immunofluorescence was visualized using confocal microscopy (BioRad MRC1024) and images analyzed by Metamorph software (Universal Imaging Corp.).
It was then determined whether increased extracellular ATP in itself, in the non-injured spinal cord, was sufficient for induction of cell death. ATP or ATP analogs, all in a concentration of 10 mM (2 μl), were injected into the spinal cord just lateral to the dorsal horn. A large number of TUNEL-positive cells were present 24 hrs later in both gray and white matter (FIG. 2F). […] These observations indicate that raising extracellular ATP concentration is sufficient for induction of cell death in the non-injured spinal cord. In this regard, P2X7 receptors are expressed by most immune cells and their activation leads to multiple downstream events, including cell permeabilization and apoptosis (Chow et al., “Purines and Their Roles in Apoptosis,” Neuropharmacology 36:1149-1156 (1997) and Di Virgilio et al., “Cytolytic P2X Purinoceptors,” Cell Death Differ 5:191-199 (1998), which are hereby incorporated by reference in their entirety)).

[2] = target: T1, P2X7 receptors (Rattus norvegicus, UniProt Q64663); test: Current clamp recording of spiking in spinal cord neurons (slices); conditions: for spiking (action potential firing) of spinal cord neurons: 100 μM, current clamp; for effect on BzATP-induced increase in spike rate (FIG. 4 legend): BzATP 100 μM, OxATP 100 μM, NBQX 10 μM and CPP 5 μM applied combined
T1 sequence (Q64663 1-595): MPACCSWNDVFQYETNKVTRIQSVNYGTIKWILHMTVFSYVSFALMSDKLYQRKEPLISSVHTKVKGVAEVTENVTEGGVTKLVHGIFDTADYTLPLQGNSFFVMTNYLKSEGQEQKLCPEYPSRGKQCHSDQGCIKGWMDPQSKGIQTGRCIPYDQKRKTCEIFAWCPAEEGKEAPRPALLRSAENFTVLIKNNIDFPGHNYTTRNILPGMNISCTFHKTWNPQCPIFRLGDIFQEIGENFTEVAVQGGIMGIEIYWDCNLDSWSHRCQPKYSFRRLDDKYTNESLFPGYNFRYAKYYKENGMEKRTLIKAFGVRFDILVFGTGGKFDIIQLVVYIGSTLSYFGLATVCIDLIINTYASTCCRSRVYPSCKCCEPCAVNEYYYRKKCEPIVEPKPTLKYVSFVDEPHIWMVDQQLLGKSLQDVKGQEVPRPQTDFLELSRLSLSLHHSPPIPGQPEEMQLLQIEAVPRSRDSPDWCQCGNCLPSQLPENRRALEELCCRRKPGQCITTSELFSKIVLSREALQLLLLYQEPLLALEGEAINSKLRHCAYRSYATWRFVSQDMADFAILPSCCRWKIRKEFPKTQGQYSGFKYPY

[3] = target: T1, P2X7 receptors; test: Two-photon calcium imaging (fluo-4) of neurons in spinal cord slices; conditions: 100 μM; for cytosolic calcium concentration (fluo-4 emission) during bath application: 20 min agonist exposure, spinal cord slices
[4] = system: spinal cord injury; test: Weight-drop spinal cord injury, TUNEL-positive cells surrounding the lesion; type: in vivo, rat; conditions: 1 mM, 2 μl injected locally into the peri-traumatic zone immediately prior to impact; 24 hrs
Procedure: as §1
The rats were anesthetized with ketamine (60 mg/kg) and xylazine (10 mg/kg). After 12 hours post-fixation, the spinal cord is cryoprotected in 30% sucrose and cut in serial 20 μm para-saggital sections. Myelin was visualized with Luxol fast blue (Basso et al., “A Sensitive and Reliable Locomotor Rating Scale for Open Field Testing in Rats,” J Neurotrauma 12:1-21 (1995) and Nedergaard et al., “Characterization of Cortical Depolarization Evoked in Focal Cerebral Ischemia,” J Cereb Blood Flow Metab 13:568-574 (1993), which are hereby incorporated by reference in their entirety)). […] Immunofluorescence was visualized using confocal microscopy (BioRad MRC1024) and images analyzed by Metamorph software (Universal Imaging Corp.).
It was next determined whether OxATP protected against cell death in the area of high ATP release following spinal cord injury. […]

[5] = system: spinal cord injury; test: Weight-drop spinal cord injury, BBB open field locomotor rating scale; type: in vivo, rat; conditions: 1 mM, 2 μl local pretreatment; n=14
Procedure: as §1
The animals were evaluated daily for 2 weeks after injury and later on a biweekly basis.
It was next determined whether OxATP protected against cell death in the area of high ATP release following spinal cord injury. OxATP (1 mM, 2 μl) was injected locally into the peri-traumatic zone immediately prior to impact. […] The BBB open field locomotor rating scale was used to evaluate recovery of rats receiving OxATP versus vehicle treated control.

Compound: CSc1nc(N)c2ncn([C@@H]3O[C@H](COP(=O)(O)OP(=O)(O)OP(=O)(O)O)[C@@H](O)[C@H]3O)c2n1 [2MeSATP]
- apoptosis (TUNEL-positive cells) after injection into spinal cord [1]: not associated with significant injury

Compound: Nc1ncnc2c1ncn2[C@@H]1O[C@H](COP(=O)(O)OP(=O)(O)OP(=O)(O)O)[C@@H](O)[C@H]1O [ATP]
- apoptosis (TUNEL-positive cells) after injection into spinal cord [1]: induced a significant extent of apoptosis
- spiking (action potential firing) of spinal cord neurons [2]: increase spiking rate; also recorded: induced high frequency spiking
- cytosolic calcium concentration (fluo-4 emission) during bath application [3]: sustained increase in cytosolic calcium concentration

Compound: Nc1ncnc2c1ncn2[C@@H]1O[C@H](COP(=O)(O)OP(=O)(O)OP(O)(O)=S)[C@@H](O)[C@H]1O [ATPγS]
- apoptosis (TUNEL-positive cells) after injection into spinal cord [1]: highest extent of apoptosis

Compound: O=C(O)C1CN(CCCP(=O)(O)O)CCN1 (stereo not shown) [CPP]
- effect on BzATP-induced increase in spike rate (FIG. 4 legend) [2]: no significant effect

Compound: Nc1ncnc2c1ncn2[C@@H](C=O)O[C@@H](C=O)COP(=O)(O)OP(=O)(O)OP(=O)(O)O [OxATP, oxidized ATP]
- number of TUNEL positive cells surrounding the lesion versus vehicle controls [4]: highly significant reduction
- BBB score difference versus vehicle, first week of recovery [5]: 2-4 points
- functional recovery (BBB) versus vehicle-treated controls [5]: significant improved recovery
- effect on BzATP-induced increase in spike rate (FIG. 4 legend) [2]: prevented BzATP-induced increase in spike rate
- effect on agonist-increased spiking activity ([2]; pretreatment, OxATP 300 μM, ATP or BzATP 100 μM): attenuated

Compound: Nc1ncnc2c1ncn2[C@@H]1O[C@H](COP(=O)(O)CP(=O)(O)OP(=O)(O)O)[C@@H](O)[C@H]1O [αβATP]
- apoptosis (TUNEL-positive cells) after injection into spinal cord [1]: not associated with significant injury

- spiking rate versus BzATP dose ([2]; n=5-9): increases in a dose-dependent manner
- Kd ([2]; read-out: kd (affinity, spiking response), spinal cord neurons): 23.8 µM
- calcium elevation after washout ([3]; 20 min exposure followed by 20 min washout): failed to recover after washout
Compound: BzATP
- apoptosis (TUNEL-positive cells) after injection into spinal cord [1]: induced apoptosis with a potency equivalent to ATP
- spiking (action potential firing) of spinal cord neurons [2]: increase spiking rate; also recorded: induced high frequency spiking
- cytosolic calcium concentration (fluo-4 emission) during bath application [3]: sustained increase in cytosolic calcium concentration

- effect on BzATP-induced increase in spike rate (FIG. 4 legend) [2]: no significant effect
Compound: NBQX
